These results are taken from patent publication US20060252807A1, “Novel ortho-terphenyl inhibitors of p38 kinase and methods of treating inflammatory disorders” (Kalypsys, Inc., priority 2005, published 2006).

Structures are written as SMILES. Where only a bound is given, the exact number is not on record here.

The target in one experiment is T1, active p38 alpha enzyme (Upstate Biotechnology) (Homo sapiens, UniProt Q16539).
T1 construct: purchased Upstate Biotechnology
T1 sequence (Q16539 whole entry): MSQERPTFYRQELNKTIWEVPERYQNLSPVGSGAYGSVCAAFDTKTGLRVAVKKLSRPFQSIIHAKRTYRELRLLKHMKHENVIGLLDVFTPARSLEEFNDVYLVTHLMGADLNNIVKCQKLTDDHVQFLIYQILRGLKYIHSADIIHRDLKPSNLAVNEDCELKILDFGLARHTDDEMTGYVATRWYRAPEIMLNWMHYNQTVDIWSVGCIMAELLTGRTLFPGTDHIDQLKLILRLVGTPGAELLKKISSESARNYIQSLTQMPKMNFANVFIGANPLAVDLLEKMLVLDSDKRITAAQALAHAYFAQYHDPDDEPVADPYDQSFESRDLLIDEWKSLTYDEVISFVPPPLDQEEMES
The experiment is described as follows: p38α biochemical assay (ATP turnover, luminescent detection, Cambrex PKlight). Particulars: p38α biochemical assay, Table 1 Biological Activity. Summed up: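 Active human p38α was incubated with full-length MapkapK2 protein as substrate and 1.4 uM ATP (final) for 2 hours at 30C. Buffer: 200 mM Tris, 100 mM MgCl2, 1.5 mM EGTA, 4 mM CaCl2, 20 mM MOPS, 1 mM EDTA, 1% glycerol, 0.1% β-mercaptoethanol, 1 mg/ml BSA. Total ATP turnover read by luminescence.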
As for `CC(C)NC(=O)c1csc(-c2c(-c3ccc(F)cc3)noc2CNC(=O)C(C(C)C)N(C)C(=O)OC(C)(C)C)n1` (stereo not shown) [Example 793], the IC50 (as a rule, the concentration that inhibits the measured activity by half) is > 1000 nM.

With `COc1ccc(/C=C/C(=O)NCc2onc(-c3ccc(F)cc3)c2-c2nc(C(=O)NC(C)C)cs2)cc1O` [Example 737], the IC50 is > 1000 nM.

Regarding `COc1ccccc1CC(=O)NCc1onc(-c2ccc(F)cc2)c1-c1nc(C(=O)NC(C)C)cs1` [Example 657], the IC50 is > 1000 nM.

For `CC(C)NC(=O)c1csc(-c2oc(CNC(=O)Cc3c(F)cccc3F)nc2-c2ccc(F)cc2)n1` [Example 193], the IC50 is ≤ 1000 nM.

As for `Cc1nc(-c2ccc(F)cc2)c(-c2nc(C(=O)NCc3ccc4c(c3)OCO4)cs2)s1` [Example 59, 4′-(4-Fluoro-phenyl)-2′-methyl-|2,5′|bithiazolyl-4-carboxylic acid (benzo|1,3|dioxol-5-ylmethyl)-amide], the half-maximal inhibitory concentration (IC50) is ≤ 1000 nM.

Regarding `COc1cccc(OC)c1C(=O)NCc1onc(-c2ccc(F)cc2)c1-c1nc(C(=O)NC(C)C)cs1` [Example 701], the IC50 is > 1000 nM.

Consider `CC(C)NC(=O)c1csc(-c2c(-c3ccc(F)cc3)noc2CNC(=O)c2c(Cl)cc(Cl)cc2Cl)n1` [Example 781], for which the IC50 is > 1000 nM.

Take `Cc1onc(-c2ccc(Cl)cc2)c1-c1ccn(C(=O)NC(C)C)n1` [Example 2, 3-|3-(4-Chloro-phenyl)-5-methyl-isoxazol-4-yl|-pyrazole-1-carboxylic acid isopropylamide]: the concentration for half-maximal inhibition (IC50) was ≤ 1000 nM.

For `CCCOc1ccc(C(=O)NCc2onc(-c3ccc(F)cc3)c2-c2nc(C(=O)NC(C)C)cs2)cc1` [Example 693], the IC50 was > 1000 nM.

Take `CC(C)NC(=O)c1csc(-c2oc(CNC(=O)c3ccc(OC(C)C)cc3)nc2-c2ccc(F)cc2)n1` [Example 219]: the IC50 is > 1000 nM.

As to `CC(C)NC(=O)c1csc(-c2c(-c3ccc(F)cc3)noc2CNC(=O)c2ccc(F)c([N+](=O)[O-])c2)n1` [Example 712], the IC50 was > 1000 nM.

The same experiment, now with this note: p38α kinase; Table 1 Biological Activity.
`CC(C)NC(=O)c1csc(-c2c(-c3ccc(F)cc3)n[nH]c2C2CCN(C(=O)CCc3ccccc3O)CC2)n1` [Example 895]: the IC50 is > 1000 nM.

With `CCCCN(CC)Cc1nc(-c2ccc(F)cc2)c(-c2nc(C(=O)NC(C)C)cs2)o1` [Example 1202], the IC50 was > 1000 nM.

For the molecule `CC(C)NC(=O)c1csc(-c2oc(CNCc3ccc(N(C)C)cc3)nc2-c2ccc(F)cc2)n1` [Example 1172], the IC50 is > 1000 nM.

As to `CCOC(=O)C1CCCN(Cc2nc(-c3ccc(F)cc3)c(-c3nc(C(=O)NC(C)C)cs3)o2)C1` (stereo not shown) [Example 1238], the IC50 is > 1000 nM.

As to `CC(C)NC(=O)c1csc(-c2oc(CNc3cc(F)cc(F)c3)nc2-c2ccc(F)cc2)n1` [Example 1330], the IC50 was > 1000 nM.

On to `CC(C)NC(=O)c1csc(-c2oc(CNCc3cccc(Cl)c3)nc2-c2ccc(F)cc2)n1` [Example 1130], for which the IC50 was > 1000 nM.

In the case of `CC(C)NC(=O)c1csc(-c2c(-c3ccc(F)cc3)noc2CNCCN2CCCCC2)n1` [Example 1439], the IC50 is > 1000 nM.

In the case of `CC(C)NC(=O)c1csc(-c2c(-c3ccc(F)cc3)n[nH]c2C2CCN(C(=O)C3=CCCC3)CC2)n1` [Example 821], the IC50 is > 1000 nM.

With `CC(C)NC(=O)c1csc(-c2oc(CN(Cc3cccnc3)Cc3cccnc3)nc2-c2ccc(F)cc2)n1` [Example 1277], the half-maximal inhibitory concentration (IC50) was > 1000 nM.

Take `CC(C)NC(=O)c1csc(-c2oc(CNCCc3ccccc3F)nc2-c2ccc(F)cc2)n1` [Example 1128]: the IC50 is > 1000 nM.

Turning to `CC(=O)c1cccc(NC(=O)c2csc(-c3sc(C)nc3-c3ccc(F)cc3)n2)c1` [Example 1983], the IC50 is ≤ 1000 nM.

In the case of `CC(C)NC(=O)c1csc(-c2c(-c3ccc(F)cc3)noc2CN(Cc2cccnc2)Cc2cccnc2)n1` [Example 1603], the IC50 was > 1000 nM.

Consider `CC(C)NC(=O)c1csc(-c2oc(CN3CCCCC3CO)nc2-c2ccc(F)cc2)n1` (stereo not shown) [Example 1214], for which the half-maximal inhibitory concentration (IC50) was > 1000 nM.

Regarding `Cc1nc(-c2ccc(F)cc2)c(-c2nc(C(=O)Nc3cc(Cl)c(Cl)c(Cl)c3)cs2)s1` [Example 2017], the IC50 is > 1000 nM.
